Measurements from ChEMBL document CHEMBL4699472, “Novel potent and selective pyrazolylpyrimidine-based SYK inhibitors” (Bioorg Med Chem Lett, 2020).

Assays:
[1] = molecular target: Tyrosine-protein kinase SYK (Homo sapiens, UniProt P43405); assay: Inhibition of SYK (unknown origin)
[2] = Lipophilicity, logD of compound in buffer:octanol (100:1) at pH 7.4 by shake flask method; assay type: physicochemical
SUD4 = assay: Growth inhibition of human SU-DHL-4 cells after 72 hrs; assay type: functional
[3] = Clearance in Han Wistar rat at 2 umol/kg, po and 1 umol/kg, iv; assay type: ADME, organism-based; details: in vivo, dose 1 µmol/kg
[4] = Intrinsic clearance in rat hepatocytes measured per million cells; assay type: ADME, cell-based, Hepatocyte; details: read-out: CLH
[5] = Volume of distribution at steady state in Han Wistar rat at 2 umol/kg, po and 1 umol/kg, iv; assay type: ADME, organism-based; details: in vivo, dose 1 µmol/kg, read-out: Vdss
[6] = Protein binding in Han Wistar rat plasma assessed as unbound fraction; assay type: ADME, cell-free
[7] = Intrinsic clearance in human liver microsomes; assay type: ADME, Microsome; details: read-out: CLH
[8] = Oral bioavailability in Han Wistar rat at 2 umol/kg; assay type: ADME, organism-based; details: in vivo, at 2 µmol/kg
[9] = Dissociation constant, pKa of the compound; assay type: physicochemical
[10] = molecular target: Voltage-gated inwardly rectifying potassium channel KCNH2 (Homo sapiens, UniProt Q12809); assay: Inhibition of human ERG assessed as tail current by plate-based planar patch clamp assay
[11] = Protein binding in Beagle dog plasma assessed as unbound fraction; assay type: ADME, cell-free, Canis lupus familiaris
[12] = Clearance in Beagle dog at 2 umol/kg, po and 1 umol/kg, iv relative to hepatic blood flow; assay type: ADME, organism-based, Canis lupus familiaris; details: in vivo, at 2 µmol/kg
[13] = Volume of distribution at steady state in Beagle dog at 2 umol/kg, po and 1 umol/kg, iv; assay type: ADME, organism-based, Canis lupus familiaris; details: in vivo, dose 2 µmol/kg, read-out: Vdss
[14] = Clearance in Beagle dog at 2 umol/kg, po and 1 umol/kg, iv; assay type: ADME, organism-based, Canis lupus familiaris; details: in vivo, dose 2 µmol/kg
[15] = Intrinsic clearance in dog hepatocytes measured per million cells; assay type: ADME, cell-based, Canis lupus familiaris, Hepatocyte; details: read-out: CLH
[16] = Oral bioavailability in Beagle dog at 2 umol/kg; assay type: ADME, organism-based, Canis lupus familiaris; details: in vivo, at 2 µmol/kg

Chain of Voltage-gated inwardly rectifying potassium channel KCNH2 (Q12809 whole entry): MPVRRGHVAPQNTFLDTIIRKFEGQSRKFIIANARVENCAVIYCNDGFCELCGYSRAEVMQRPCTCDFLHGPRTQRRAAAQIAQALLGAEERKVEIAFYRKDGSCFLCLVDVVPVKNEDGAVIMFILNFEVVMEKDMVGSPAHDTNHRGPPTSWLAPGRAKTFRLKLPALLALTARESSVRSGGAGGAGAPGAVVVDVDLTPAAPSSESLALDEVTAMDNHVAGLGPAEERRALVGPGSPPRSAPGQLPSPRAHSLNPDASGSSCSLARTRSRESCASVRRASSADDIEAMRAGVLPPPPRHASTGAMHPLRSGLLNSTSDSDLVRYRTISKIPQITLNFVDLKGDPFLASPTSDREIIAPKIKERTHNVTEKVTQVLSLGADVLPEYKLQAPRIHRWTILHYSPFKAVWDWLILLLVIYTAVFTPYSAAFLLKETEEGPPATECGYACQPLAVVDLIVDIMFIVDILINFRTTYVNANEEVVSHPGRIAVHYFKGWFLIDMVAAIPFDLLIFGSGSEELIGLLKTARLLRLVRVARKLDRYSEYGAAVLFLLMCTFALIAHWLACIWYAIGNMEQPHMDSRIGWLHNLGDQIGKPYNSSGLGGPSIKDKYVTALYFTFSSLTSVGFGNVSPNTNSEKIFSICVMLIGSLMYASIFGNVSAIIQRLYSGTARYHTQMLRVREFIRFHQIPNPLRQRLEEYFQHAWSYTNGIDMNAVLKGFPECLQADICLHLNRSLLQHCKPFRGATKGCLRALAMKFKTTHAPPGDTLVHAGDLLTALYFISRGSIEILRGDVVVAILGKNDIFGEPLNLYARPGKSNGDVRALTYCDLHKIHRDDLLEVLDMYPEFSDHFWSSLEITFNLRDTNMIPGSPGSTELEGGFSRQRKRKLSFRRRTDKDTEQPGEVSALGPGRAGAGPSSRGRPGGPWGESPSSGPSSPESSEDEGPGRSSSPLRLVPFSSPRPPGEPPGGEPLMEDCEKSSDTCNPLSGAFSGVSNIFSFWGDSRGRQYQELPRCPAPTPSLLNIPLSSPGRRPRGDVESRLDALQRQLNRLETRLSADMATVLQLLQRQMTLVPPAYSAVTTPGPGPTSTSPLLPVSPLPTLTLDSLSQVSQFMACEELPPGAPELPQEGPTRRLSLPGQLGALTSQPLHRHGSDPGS

Row | Compound | IC50 [1] [nM] | logD [2] | GI50 (SUD4) [nM] | hepatocyte CLint [4] [µL/min/1e6 cells] | microsomal CLint [7] [µL/min/mg] | IC50 [10] [nM] | further results
1 | CNC(=O)c1nn(C)c2ccc(Nc3nccc(-n4cc(N[C@H]5CCNC5)c(C)n4)n3)cc12 | 11 | – | – | – | – | – | –
2 | CNC(=O)c1nn(C)c2ccc(Nc3nccc(-n4cc(N[C@@H]5CCN(C)C5)c(C)n4)n3)cc12 | 7.9 | 2 | – | – | – | – | –
3 | CNC(=O)c1nn(C)c2ccc(Nc3nccc(-n4cc(N[C@@H]5CCOC[C@@H]5N)c(C)n4)n3)cc12 | 0.34 | 1.6 | 560 | 8 | 32 | – | clearance [3]: 76 mL/min/kg; Vd [5]: 5.4 L/kg; fraction unbound [6]: 0.25; bioavailability [8]: 3.8%
4 | CNC(=O)c1nn(C)c2ccc(Nc3nccc(-n4cc(CN(C)C)c(C)n4)n3)cc12 | – | – | 240 | – | – | – | –
5 | CNC(=O)c1nn(C)c2ccc(Nc3nccc(-n4cc(OC5CNC5)c(C)n4)n3)cc12 | 1.3 | 1.9 | – | 13 | < 3 | – | –
6 | CNC(=O)c1nn(C)c2ccc(Nc3nccc(-n4cc(N[C@H]5CNC[C@@H]5F)c(C)n4)n3)cc12 | 0.3 | 1.7 | 970 | 8 | 28 | 19000 | pKa [9]: 7.8
7 | CNC(=O)c1nn(C)c2ccc(Nc3nccc(-n4cc(N[C@@H]5CCCNC5)c(C)n4)n3)cc12 | 0.73 | 0.6 | 300 | 3 | < 5 | > 39000 | clearance [3]: 78 mL/min/kg; Vd [5]: 19 L/kg; fraction unbound [6]: 0.33; bioavailability [8]: 0%
8 | Cc1nnc(-c2nn(C)c3ccc(Nc4nccc(-n5cc(N[C@@H]6CCOC[C@@H]6N)c(C)n5)n4)cc23)o1 | 0.2 | 3.1 | 1300 | 17 | 129 | 11000 | –
9 | CNC(=O)c1nc(C)n2ccc(Nc3nccc(-n4cc(OCCN)cn4)n3)cc12 | 0.88 | 0.6 | – | 14 | 7 | > 39000 | –
10 | CNC(=O)c1nn(C)c2ccc(Nc3nccc(-n4cc(N[C@@H]5CCNC5)c(C)n4)n3)cc12 | 0.6 | 0.3 | 170 | 3 | < 10 | > 39000 | clearance [3]: 60 mL/min/kg; Vd [5]: 13 L/kg; fraction unbound [6]: 0.24; pKa [9]: 9.5; bioavailability [8]: 0%
11 | CNC(=O)c1nn(C)c2ccc(Nc3nccc(-n4cc(O[C@H]5CCNC5)c(C)n4)n3)cc12 | 2.9 | – | – | – | – | – | –
12 | CNC(=O)c1nn(C)c2ccc(Nc3nccc(-n4cc(NC5CNC5)c(C)n4)n3)cc12 | 1.5 | 0.7 | – | < 1 | 8 | – | –
13 | CNC(=O)c1nc(C)n2ccc(Nc3nccc(-n4cc(N[C@@H]5CCOC[C@@H]5N)cn4)n3)cc12 | – | 1.7 | 260 | 14 | 20 | > 39000 | –
14 | CNC(=O)c1nc(C)n2ccc(Nc3nccc(-n4cc(N[C@@H]5CCOC[C@@H]5N)c(C)n4)n3)cc12 | 3.2 | 1.6 | 810 | 6 | 32 | > 39000 | –
15 | CNC(=O)c1nn(C)c2ccc(Nc3nccc(-n4cc(O[C@@H]5CCCNC5)c(C)n4)n3)cc12 | 0.19 | 1.7 | 350 | 9 | 8 | 2500 | –
16 | Cc1nn(-c2ccnc3[nH]c(-c4cccc5c4ccn5C)nc23)cc1CN(C)C | – | – | – | – | 37 | – | –
17 | CNC(=O)c1nc(C)n2ccc(Nc3nccc(-n4cc(CN(C)C)cn4)n3)cc12 | 0.24 | 1.3 | 230 | 13 | 20 | 7100 | –
18 | CNC(=O)c1nn(C)c2ccc(Nc3nccc(-n4cc(O[C@@H]5CCNC5)c(C)n4)n3)cc12 | 0.51 | 1.4 | 510 | 13 | < 5 | 5200 | –
19 | CNC(=O)c1nc(C)n2ccc(Nc3nccc(-n4cc(NCCN)cn4)n3)cc12 | 0.23 | – | – | 2 | < 3 | > 39000 | –
20 | CNC(=O)c1nn(C)c2ccc(Nc3nccc(-n4cc(N[C@@H]5CCOC[C@@H]5N)cn4)n3)cc12 | 0.33 | 2.2 | 220 | 4 | 17 | 15000 | clearance [3]: 82 mL/min/kg; Vd [5]: 9.8 L/kg; fraction unbound [6]: 0.28; fraction unbound [11]: 0.27; CL [12]: 40%; Vd [13]: 5.7 L/kg; clearance [14]: 16 mL/min/kg; hepatocyte CLint [15]: < 1 µL/min/1e6 cells; bioavailability [8]: 1.8%; bioavailability [16]: 2%
21 | Cc1nn(-c2ccnc(Nc3ccc4c(c3)c(C(=O)C(F)(F)F)cn4C)n2)cc1N[C@@H]1CCOC[C@@H]1N | 0.22 | 2.4 | – | 8 | 71 | 4700 | –
22 | Cc1nn(-c2ccnc(Nc3ccc4c(c3)c(Cl)nn4C)n2)cc1N[C@@H]1CCOC[C@@H]1N | 62 | – | – | – | – | – | –
23 | CNC(=O)c1nn(C)c2ccc(Nc3nccc(-n4cc(O[C@H]5CNC[C@H]5F)c(C)n4)n3)cc12 | 0.4 | 2.9 | 1400 | 25 | 44 | – | –
24 | CNC(=O)c1nn(C)c2ccc(Nc3nccc(-n4cc(NCC5(N)CC5)c(C)n4)n3)cc12 | 0.34 | 2.3 | 2800 | 8 | 28 | – | clearance [3]: 13 mL/min/kg; Vd [5]: 1.3 L/kg; fraction unbound [6]: 0.056; bioavailability [8]: 29%
